In US10010608B2, “Combination therapies for cancer” (MERCK SHARP & DOHME CORP., priority 2013, dated 2018):

Tested on: CT-26 murine colorectal adenocarcinoma cell line
Experiment: Anti-tumor response of CT-26 tumor-bearing BALB/c mice (syngeneic model)
Format: in vivo, mouse
Description: This experiment compared the anti-tumor response of tumor-bearing mice to treatment with one of three regimens: (i) monotherapy with a murine anti-mouse PD-1 monoclonal antibody of murine isotype IgG1 (Anti-PD1); (ii) monotherapy with trametinib and (iii) combination therapy with anti-PD1 and trametinib administered concurrently. Murine isotype IgG1 is the murine counterpart isotype to human isotype IgG4.
While human tumor cells or tumor explants can be grown in immunodeficient animals as xenografts, they cannot be used for testing immunotherapeutics because of the lack of a functional immune system. For a meaningful evaluation of immunotherapeutics or combination of immunotherapeutics with other agents, it is necessary to use a syngeneic model in which syngeneic tumors are grown in animals with an intact immune system. CT-26 is a murine colorectal adenocarcinoma cell line syngeneic to the BALB/c mouse strain. CT-26 carries a KRAS mutation that activates the mitogen-activating protein kinase pathway, which makes it a relevant model to evaluate sensitivity to trametinib (an inhibitor of mitogen-activated protein kinase kinase). This is also a relevant model system for evaluating the mechanism of action for an anti-PD-1 antibody because of the translatable molecular profile of this tumor post-anti-PD-1 therapy. […]

CC(=O)Nc1cccc(-n2c(=O)n(C3CC3)c(=O)c3c(Nc4ccc(I)cc4F)n(C)c(=O)c(C)c32)c1 [trametinib, N-{3-[3-cyclopropyl-5-(2-fluoro-4-iodo-phenylamino)6,8-dimethyl-2,4,7-trioxo-3,4,6,7-tetrahydro-2H-pyrido[4,3-d]pyrimidin-1-yl]phenyl}acetamide] was tested, and the “effect of trametinib on the anti-tumor effects of Anti-PD1” value (combination treatment arm) was “did not appear to antagonize” and the “animals with complete regression (CR)” value (end of the 23 day treatment period, 12 mice per group) was “no CRs”.
